Data taken from patent EP4800018A1, “PAN-KRAS INHIBITOR AND USE THEREOF IN MEDICINES” (Betta Pharmaceuticals Co., Ltd., priority 2023, dated 2025).
Read-outs that look alike come from different tables or passages of the source.

How the values were obtained:
Assay type in all cases: cell-based
[1] = tested on: KRAS-G12D mutant tumor cells AGS; assay: Cell Proliferation Inhibition Assay (AGS), Cell-titer GLO, 96 h; settings: read-out: AGS(G12D)
Protocol: KRAS-G12D mutant tumor cells AGS were seeded in low-attachment 96-well plates at a cell density of 1×10^3 cells/well and cultured overnight in a cell culture incubator. […] After incubation at 37°C for 96 h, 50 µL of Cell-titer GLO working solution was added to each well, mixed by shaking, incubated at room temperature for 10 min, and the Luminescence value was read on a multi-function microplate reader. The luminescence data were calculated and converted into inhibition percent. The inhibition percent of cell proliferation was calculated according to the following formula: Inhibition Percent = (MaxValue−MeasuredValue)/(MaxValue−Blank) × 100% [formula] […] Curve fitting was performed using GraphPad Prism software to obtain IC50 values, see Table 1.

[2] = tested on: KRAS-G12V mutant tumor cells SW620; assay: Cell Proliferation Inhibition Assay (SW620), Cell-titer GLO, 96 h; settings: read-out: SW620(G12V)
Protocol: KRAS-G12V mutant tumor cells SW620 were seeded in low-attachment 96-well plates at a cell density of 1×10^3 cells/well and cultured overnight in a cell culture incubator. After the cells adhered, the test compounds were added to the 96-well plates at final concentrations of 10000, 2000, 400, 80, 16, 3.2, 0.64, 0.13, 0.03, 0 nM (final concentration of DMSO was 0.5% for all). After incubation at 37°C for 96 h, 50 µL of Cell-titer GLO working solution was added to each well, mixed by shaking, incubated at room temperature for 10 min, and the Luminescence value was read on a multi-function microplate reader. The luminescence data were calculated and converted into inhibition percent. The inhibition percent of cell proliferation was calculated according to the following formula: Inhibition Percent = (MaxValue−MeasuredValue)/(MaxValue−Blank) × 100% [formula]
("Max Value" comes from the 0.5% DMSO control well, "Blank" comes from the blank control well, and "Measured Value" comes from the compound-treated well).
Curve fitting was performed using GraphPad Prism software to obtain IC50 values, see Table 1.

KRAS G12D-cRAF = target: T1, KRAS G12D-cRAF (Homo sapiens, UniProt P01116, G12D); assay: Cellular KRAS G12D-cRAF Binding Inhibition Assay (NanoBRET, AD293 stable cells); settings: 3 h incubation, read-out: NanoBRET KRAS G12D
T1 construct: expressed in transfected cells
Protocol: (§1) NanoLuc® luciferase was used as the energy donor, and NanoBRET™ 618 fluorescent ligand labeled with the HaloTag® protein was used as the energy acceptor to detect protein-protein interactions in living cells. AD293 stable cells transfected with KRAS G12D-NanoLuc® luciferase and cRAF RBD-HaloTag® tag protein were seeded in 96-well plates at a cell density of 1×10^4 cells/well. Except for wells with medium added as a blank control, NanoBRET™ 618 fluorescent ligand was added to all other wells, and the plates were cultured overnight in a cell culture incubator. […] The luminescence data were calculated and converted into inhibition percent. The inhibition percent of KRAS G12D-cRAF binding was calculated according to the following formula: Inhibition Percent = (MaxValue−MeasuredValue)/(MaxValue−Blank) × 100% [formula] […] Curve fitting was performed using GraphPad Prism software to obtain IC50 values, see Table 1.

KRAS G12V-cRAF = target: T2, KRAS G12V-cRAF (Homo sapiens, UniProt P01116, G12V); assay: Cellular KRAS G12V-cRAF Binding Inhibition Assay (NanoBRET, AD293 stable cells); settings: 3 h incubation, read-out: NanoBRET KRAS G12V
T2 construct: expressed in transfected cells
Protocol: as §1, with “AD293 stable cells transfected with KRAS G12D-NanoLuc® luciferase and cRAF RBD-HaloTag® tag protein were seeded in 96-well plates at a cell density of 1×10^4 cells/well.” left out, “G12V-cRAF” for “G12D-cRAF”

[3] = Homo sapiens, AGS, 96 h, AGS cells, 96 h incubation, Cell-titer GLO
[4] = Homo sapiens, SW-620, 96 h, SW620 cells, 96 h incubation, Cell-titer GLO
[5] = AGS cells, 96 h incubation, Cell-titer GLO
[6] = SW620 cells, 96 h incubation, Cell-titer GLO

Molecule	IC50 ([1]; Homo sapiens, AGS, 96 h) [nM]	IC50 ([2]; Homo sapiens, SW-620, 96 h) [nM]	IC50 (KRAS G12D-cRAF) [nM]	IC50 (KRAS G12V-cRAF) [nM]	IC50 [1, 3] [nM]	IC50 [2, 4] [nM]	IC50 [1, 5] [nM]	IC50 [2, 6] [nM]
CC1OCCCn2c(c3c4cc(ccc42)-c2csc(n2)CC(NC(=O)C2CC2C(F)F)C(=O)N2CCCC(N2)C(=O)OCC(C)(C)C3)-c2cc(N3CCN(C4CN(C)C4)CC3)cnc21 [Example 108, (1S,2S)-2-(difluoromethyl)-N-((1^5S,6^3S,4S,Z)-1^5,10,10-trimethyl-1^2-(4-(1-methylazetidin-3-yl)piperazin-1-yl)-5,7-dioxo-1^8, 1^9,6^1,6^2,6^3,6^4,6^5 ,6^6-octahydro-1^5H,1^7H-8-oxa-1(13,15)-pyrido[3',2':7,8][1,5]oxazonino[5,6-a]indola-2(4,2)-thiazola-6(1,3)-pyridazinacycloundecaphane-4-yl)cycloprop ane-1-carboxamide]	0.58	0.28	6.1	37.9	–	–	–	–
CC1OCCCn2c(c3c4cc(ccc42)-c2csc(n2)CC(NC(=O)C2CC2C(F)F)C(=O)N2CCCC(N2)C(=O)OCC(C)(C)C3)-c2cc(N3CCCC(N(C)C)C3)cnc21 [Example 117, (1S,2S)-2-(difluoromethyl)-N-((1^5S,6^3S,4S,Z)-1^2-(3-(dimethylamino)piperidin-1-yl)-1^5,10,10-trimethyl-5,7-dioxo-1^8,1^9,6^1,6^2,6^3,6^4,6^5,6^6-octahydro-1^5H,1^7H-8-oxa-1(13,15)-pyrido[3',2':7,8][1,5]oxazonino[5,6-a]indola-2(4,2)-thiazola-6(1,3)-pyridazinacycloundecaphane-4-yl)cyclopropane-1-carboxamide]	–	–	1.8	8.1	0.86	0.21	–	–
CC1OCCCn2c(c3c4cc(ccc42)-c2csc(n2)CC(NC(=O)C2CC2C(F)F)C(=O)N2CCCC(N2)C(=O)OCC(C)(C)C3)-c2cc(-c3ccc(N4CCN(C)CC4)cc3)cnc21 [Example 96, (1S,2S)-2-(difluoromethyl)-N-((1^5S,6^3S,4S,Z)-1^5,10,10-trimethyl-1^2-(4-(4-methylpiperazin-1-yl)phenyl)-5,7-dioxo-1^8,1^9,6^1,6^2,6^3,6^4,6^5,6^6-octahydro-15H,17H-8-oxa-1(13,15)-pyrido[3',2':7,8][1, 5]oxazonino[5,6-a]indola-2(4,2)-thiazola-6(1,3)-pyridazinacycloundecaphane-4-yl)cyclopropane-1-carboxamide]	–	–	5.99	19.8	2.4	1.07	–	–
CC1CN(c2cnc3c(c2)-c2c4c5cc(ccc5n2CCCOC3C)-c2csc(n2)CC(NC(=O)C2CC2C(F)F)C(=O)N2CCCC(N2)C(=O)OCC(C)(C)C4)CC(C)O1 [Example 131, (1S,2S)-2-(difluoromethyl)-N-((1^5S,6^3S,4S,Z)-1^2-((2S,6S)-2,6-dimethylmorpholino)-1^5,10,10-trimethyl-5,7-dioxo-1^8,1^9,6^1,6^2,6^3,6^4,6^5,6^6-octahydro-1^5H,1^7H-8-oxa-1(13,15)-pyrido[3',2':7,8][1,5]oxazonino[5,6-a]indola-2(4,2)-thiazola-6(1,3)-pyridazinacycloundecaphane-4-yl)cyclopropane-1-carboxamide]	–	–	2.57	11	–	–	1.31	0.51
(1S,2S)-2-(difluoromethyl)-N-((1^5S,6^3S,4S,Z)-1^5,10,10-trimethyl-1^2-(6-methyl-3,6-diazabicyclo[ 3.1.1]heptan-3-yl)-5,7-dioxo-1^8,1^9,6^1,6^2,6^3,6^4,6^5,6^6-octahydro-1^5H,1^7H-8-oxa-1(13,15)-pyrido[3', 2':7,8][1,5]oxazonino[5,6-a]indola-2(4,2)-thiazola-6(1,3)-pyridazinacycloundecaphane-4-yl)cycl opropane-1-carboxamide [Example 150]	–	–	1.61	8.1	–	–	0.93	0.16
CC1OCCCn2c(c3c4cc(ccc42)-c2csc(n2)CC(NC(=O)C2CC2C)C(=O)N2CCCC(N2)C(=O)OCC(C)(C)C3)-c2cc(N3CCOCC3)cnc21 [Example 118, (1S,2S)-2-methyl-N-((1^5S,6^3S,4S,Z)-1^5,10,10-trimethyl-1^2-morpholino-5,7-dioxo-1^8,1^9,6^1,6^2,6^3,6 ^4,6^5,6^6-octahydro-1^5H,1^7H-8-oxa-1(13,15)-pyrido[3',2':7,8][1,5]oxazonino[5,6-a]indola-2(4,2)-thiazola-6(1,3)-pyridazinacycloundecaphane-4-yl)cyclopropane-1-carboxamide]	–	–	7.2	30.6	3.77	1.5	–	–
C[C@@H]1OCCCn2c(c3c4cc(ccc42)-c2csc(n2)C[C@H](NC(=O)[C@H]2C[C@@H]2C(F)F)C(=O)N2CCC[C@H](N2)C(=O)OCC(C)(C)C3)-c2cc(N3C[C@@H]4CCN(C)[C@@H]4C3)cnc21 [Example 163, (1S,2S)-2-(difluoromethyl)-N-((1^5S,6^3S,4S,Z)-1^5,10,10-trimethyl-1^2-((3aS,6aS)-1-methylhexahydropyrrolo[3,4-b]pyrrol-5(1H)-yl)-5,7-dioxo-1^8,1^9,6^1,6^2,6^3,6^4,6^5,6^6-octahydro-1^5H,1^7H-8-oxa-1(1 3,15)-pyrido[3',2':7,8][1,5]oxazonino[5,6-a]indola-2(4,2)-thiazola-6(1,3)-pyridazinacycloundecaphane-4-yl)cyclopropane-1-carboxamide]	–	–	–	–	1.44	0.2	–	–
C[C@@H]1[C@H](C)[C@H]1C(=O)N[C@H]1Cc2nc(cs2)-c2ccc3c(c2)c(c2n3CCCO[C@@H](C)c3ncc(CN4CCOCC4)cc3-2)CC(C)(C)COC(=O)[C@@H]2CCCN(N2)C1=O [Example 194, (1r,2R,3S)-2,3-dimethyl-N-((1^5S,6^3S,4S,Z)-1^5,10,10-trimethyl-1^2-(morpholinomethyl)-5,7-dioxo-1^8,1^9,6^1,6^2,6^3,6^4,6^5,6^6-octahydro-1^5H,1^7H-8-oxa-1(13,15)-pyrido[3',2':7,8][1,5]oxazonino[5,6-a]indola-2(4,2)-thiazola-6(1,3)-pyridazinacycloundecaphane-4-yl)cyclopropane-1-carboxamide]	–	–	–	–	3	1.4	–	–
C[C@@H]1OCCCn2c(c3c4cc(ccc42)-c2csc(n2)C[C@H](NC(=O)[C@H]2C[C@@H]2C(F)F)C(=O)N2CCC[C@H](N2)C(=O)OCC(C)(C)C3)-c2cc(N3C[C@@H]4C[C@H]3CN4C)cnc21 [Example 155, (1S,2S)-2-(difluoromethyl)-N-((1^5S,6^3S,4S,Z)-1^5,10,10-trimethyl-1^2-((1S,4S)-5-methyl-2,5-diazabicyclo[2.2.1]heptan-2-yl)-5,7-dioxo-1^8,1^9,6^1,6^26^3,6^4,6^5,6^6-octahydro-1^5H,1^7H-8-oxa-1(13,15)-pyrido[3',2':7,8][1,5]oxazonino[5,6-a]indola-2(4,2)-thiazola-6(1,3)-pyridazinacycloundecaphane-4-yl)cyclopropane-1-carboxamide]	–	–	–	–	1.38	0.62	–	–
